Experimental data: ChEMBL document CHEMBL4402519, “The Mediterranean Diet as source of bioactive compounds with multi-targeting anti-cancer profile” (Eur J Med Chem, 2019)
In brackets after ≈: the same amount, converted by molar mass.

Tests used:
HL-60 = experiment: Growth inhibition of human HL60 cells after 72 hrs by MTT assay; format: functional, cell-based; conditions: HL-60, 72 h
COLO 205 [1] = experiment: Induction of apoptosis in human COLO205 cells after 24 hrs relative to control; format: functional
COLO 205 [2] = experiment: Induction of apoptosis in human COLO205 cells after 24 hrs; format: functional, cell-based; conditions: COLO 205, 24 h
PC-3 [3] = experiment: Antiproliferative activity against human PC3 cells after 48 hrs by MTT assay; format: functional, cell-based; conditions: PC-3, 48 h
PC-3 [4] = experiment: Antiproliferative activity against human PC3 cells after 24 hrs by MTT assay; format: functional, cell-based; conditions: PC-3, 24 h

| IC50 (HL-60) [µg/mL] | SMILES | also measured |
| --- | --- | --- |
| 0.01 to 0.94 (≈ 0.0249 to 2.34 µM) | COc1ccc(-c2cc(=O)c3c(OC)c(OC)c(OC)c(OC)c3o2)cc1OC [NOBILETIN] |  |
| 0.01 to 0.94 (≈ 0.0269 to 2.52 µM) | COc1ccc(-c2cc(=O)c3c(OC)c(OC)c(OC)c(OC)c3o2)cc1 [TANGERETIN] |  |

The remaining lines, values behind:

| SMILES | IC50 (HL-60) [µg/mL] | also measured |
| --- | --- | --- |
| CC(C)c1cc2c(c(O)c1O)[C@@]13CCCC(C)(C)[C@@H]1[C@H](OC3=O)[C@H]2O [ROSMANOL] |  | Activity (COLO 205 [1]): 51%; IC50 (COLO 205 [2]): 42 µM |
| O=C1c2c(O)cc(O)cc2O[C@H](c2ccc(O)c(O)c2)[C@H]1O [(+)-TAXIFOLIN] | 0.01 to 0.94 (≈ 0.0329 to 3.09 µM) |  |
| O=c1c(O)c(-c2ccc(O)c(O)c2)oc2cc(O)cc(O)c12 [QUERCETIN] | 0.01 to 0.94 (≈ 0.0331 to 3.11 µM) |  |
| COc1ccc([C@@H]2CC(=O)c3c(O)cc(O)cc3O2)cc1O [HESPERETIN] |  | IC50 (PC-3 [3]): 40 µM; IC50 (PC-3 [4]): 90 µM |
